Here are results for 42 molecules from patent publication EP4631938A1, “NITROGEN-CONTAINING HETEROCYCLE WITH SEROTONIN RECEPTOR-BINDING ACTIVITY AND CARBOCYCLIC DERIVATIVE” (Shionogi & Co., Ltd, priority 2022, dated 2024).

The target in assay [1] is T1, human recombinant 5-HT2A receptor (Homo sapiens, UniProt P28223).
T1 construct: expressed in transfected cells; host or cells: Jump-In HEK cells (membrane preparation)
Put plainly: Test Example 1-2: 5-HT2A receptor binding inhibition test ([3H]-Ketanserin; non-specific ligand Ketanserin). The essentials:
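Membranes expressing the receptor were incubated with [3H]-ketanserin and compound for 1.5 h at 25 °C, then filtered onto plates presoaked in 50 mmol/L Tris-HCl pH 7.4 and scintillation-counted. Non-specific binding was defined with 500 µmol/L unlabeled ketanserin. Ki was taken from dose-response curves, with Kd set for each membrane lot by Scatchard analysis.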

Assay [2] has as its target T2, human recombinant 5-HT2C receptor (Homo sapiens, UniProt P28335).
T2 construct: expressed in transfected cells; host or cells: Jump-In HEK cells (membrane preparation)
T2 sequence (P28335 33-458): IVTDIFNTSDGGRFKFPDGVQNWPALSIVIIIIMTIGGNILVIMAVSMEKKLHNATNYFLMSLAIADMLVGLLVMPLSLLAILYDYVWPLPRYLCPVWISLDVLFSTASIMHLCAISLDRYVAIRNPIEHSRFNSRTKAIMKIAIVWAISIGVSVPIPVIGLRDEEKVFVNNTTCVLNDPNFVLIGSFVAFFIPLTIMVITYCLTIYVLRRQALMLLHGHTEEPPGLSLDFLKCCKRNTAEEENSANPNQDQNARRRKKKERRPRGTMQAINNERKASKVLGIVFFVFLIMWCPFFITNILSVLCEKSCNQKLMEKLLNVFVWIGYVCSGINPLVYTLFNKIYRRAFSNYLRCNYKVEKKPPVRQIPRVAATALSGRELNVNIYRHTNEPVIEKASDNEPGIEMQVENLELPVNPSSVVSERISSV
Put plainly: Test Example 2-2: 5-HT2C receptor binding inhibition test ([3H]-Mesulergine; non-specific ligand Ketanserin). The settings on record: non-specific binding with 500 µmol/L Ketanserin, 37°C, 2 hours. As to the method: The Kd value is calculated when the lot of the cell membrane is changed. 1 mmol/L non-specific binding calculating compound dissolved in DMSO or DMSO is previously dispensed to the microplate by 0.5 µL, and the cell membrane is diluted with an Assay buffer. The radioactive ligand solution is diluted step by step, and counts are checked with a liquid scintillator. The Assay buffer containing diluted cell membranes is dispensed by 50 µL/well into the microplate. The radioactive ligand solution is then dispensed by 50 µL/well into the microplate and the plate is sealed. The microplate is allowed to stand at 37°C for 2 hours. During this time, 50 mmol/L Tris-HCl (pH 7.4) is dispensed by 50 µL/well into the UniFilter plate and allowed to stand at 4°C for 1 hour or longer. Thereafter, filtration is performed with a Cell Harvester (PerkinElmer). The radioactive ligand solution is dispensed by 10 µL/well into empty wells of the UniFilter plate. After drying the UniFilter plate at room temperature, MicroScinti20 is dispensed by 50 µL/well into the UniFilter plate, and the plate is sealed. UniFilter plate is allowed to stand at room temperature overnight. The radioactivity of [^3H]-Mesulergine bound to the 5-HT2C receptor is measured using Microbeta2 (PerkinElmer) at a measurement time of 1 min/well. The Saturation curve is drawn from the measured value, and the Kd value is calculated from the slope of the Scatchard Plot.
A compound solution dissolved in DMSO is dispensed to a microplate by 0.5 µL, and a cell membrane and a hot ligand are each diluted with an Assay buffer. The Assay buffer containing diluted cell membrane is then dispensed by 50 µL/well into the microplate. The radioactive ligand solution is then dispensed by 50 µL/well into the microplate and the plate is sealed. The microplate is then allowed to stand at 37°C for 2 hours. During this time, 50 mmol/L Tris-HCl (pH 7.4) is dispensed by 50 µL/well into the UniFilter plate and allowed to stand at 4°C for 1 hour or longer. Thereafter, filtration is performed with a Cell Harvester (PerkinElmer). After drying the UniFilter plate at room temperature, MicroScinti20 is dispensed by 50 µL/well into the UniFilter plate, and the plate is sealed. UniFilter plate is allowed to stand at room temperature overnight. The radioactivity of [^3H]-Mesulergine bound to the 5-HT2C receptor is measured using Microbeta2 (PerkinElmer) at a measurement time of 1 min/well. Non-specific binding is calculated from the radioactivity of [^3H]-Mesulergine in the presence of 500 µmol/L Ketanserin of unlabeled ligand, and total binding is calculated from the radioactivity of [^3H]-Mesulergine in the absence of the compound of the present invention (Vehicle). Finally, the Ki value is calculated from the dose-response curve.
(The binding activity of the compound according to the present invention is calculated from the following binding inhibition rate (%).) Inhibition rate (%) = [1−(c−a)/(b−a)] × 100 [formula] • a; average cpm of non-specific binding • b; average cpm of total binding • c; cpm in the presence of the test compound
The compounds of the present invention were tested essentially as described above.

The mark [3] stands for this setting: [3H]-Ketanserin, non-specific binding with 500 µmol/L Ketanserin, room temperature (25°C), 1.5 hours, read-out: h 5-HT2A Ki.

Like-named read-outs stand apart in the source and are kept apart here.

T1 sequence (P28223 whole entry): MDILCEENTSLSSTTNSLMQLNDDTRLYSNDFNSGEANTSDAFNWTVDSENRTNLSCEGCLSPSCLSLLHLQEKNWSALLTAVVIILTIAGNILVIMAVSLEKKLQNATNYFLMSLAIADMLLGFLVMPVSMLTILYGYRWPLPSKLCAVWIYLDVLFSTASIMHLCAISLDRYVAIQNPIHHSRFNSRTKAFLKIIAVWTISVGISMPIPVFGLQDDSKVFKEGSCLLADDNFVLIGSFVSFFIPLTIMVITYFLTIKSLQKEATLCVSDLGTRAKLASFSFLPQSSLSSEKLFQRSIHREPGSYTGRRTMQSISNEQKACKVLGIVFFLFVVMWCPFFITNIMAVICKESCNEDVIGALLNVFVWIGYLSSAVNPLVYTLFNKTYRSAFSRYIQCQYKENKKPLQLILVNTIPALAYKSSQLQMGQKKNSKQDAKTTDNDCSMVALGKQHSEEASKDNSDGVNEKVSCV

For `Cn1ncc(Br)c1-c1cc(Nc2ncc(Cl)cn2)c(F)cc1OCCO` [Compound I-149], the Ki in assay [1] (setting [3]) worked out at 0.365 nM; in assay [2], 1.35 nM.
Taken in the same sequence, the figures for `Cc1ccc(-c2cc(Nc3ncc(C(F)(F)F)cc3F)ccc2OCCO)c(C)n1` [Compound I-025] were 0.25 nM and 3.7 nM.
`Cn1ncc(Br)c1-c1cc(Nc2ccc(C3CC3)cn2)cnc1OCCO` [Compound I-128]: the inhibition constant Ki was found to be 0.258 nM in assay [1] (setting [3]) and 0.452 nM in assay [2].
Take `Cc1cnn(C)c1-c1cc(Nc2ncc(Cl)cc2F)cnc1OCCO` [Compound I-141]: the inhibition constant (Ki) in assay [1] (setting [3]) came to 0.296 nM; in assay [2], 4.07 nM.
Taken in the same sequence, the figures for `Cn1ncc(Br)c1-c1cc(Nc2ccc(C(F)(F)F)cn2)c(F)cc1OCCO` [Compound I-151] were 0.292 nM and 0.206 nM.
In the case of `Cc1cnc(Nc2ccc(OCCO)c(-c3c(Br)cnn3C)c2)c(F)c1` [Compound I-049], the Ki in assay [1] (setting [3]) was 0.168 nM; in assay [2], 0.641 nM.
For the molecule `Cn1ncc(Br)c1-c1cc(Nc2ncc(C3CC3)s2)cnc1OCCO` [Compound I-129], the inhibition constant Ki came to 0.237 nM in assay [1] (setting [3]) and 0.959 nM in assay [2].
Taken in the same sequence, the figures for `Cn1ncc(C#N)c1-c1cc(Nc2ncc(C(F)(F)F)cc2F)cnc1OCCO` [Compound I-087] were 0.241 nM and 6.37 nM.
As to `Cc1nc(C)c(-c2cc(Nc3ncc(Cl)cc3F)ccc2OCCO)c(C)n1` [Compound I-098], the inhibition constant Ki in assay [1] (setting [3]) worked out at 0.559 nM; in assay [2], 3.18 nM.
In the case of `Cn1ncc(Br)c1-c1cc(Nc2ncc(Cl)cn2)cnc1OCCO` [Compound I-132], the inhibitory constant (Ki) in assay [1] (setting [3]) stood at 0.236 nM; in assay [2] it was 5 nM.
As to `Cn1ncc(C#N)c1-c1cc(Nc2ccc(OC(F)(F)F)cn2)ccc1OCCO` [Compound I-121], the inhibition constant (Ki) in assay [1] (setting [3]) came to 0.279 nM; in assay [2] it was 1.3 nM.
In the case of `Cn1ncc(Br)c1-c1cc(Nc2ncc(C#N)cc2F)ccc1OCCO` [Compound I-044], the results for the inhibitory constant (Ki) in assay [1] (setting [3]) and in assay [2] were 0.626 nM and 15.1 nM, respectively.
For `Cn1ncc(C#N)c1-c1cc(Nc2ncc(C(F)(F)F)cc2F)c(Cl)cc1OCCO` [Compound I-109], the Ki in assay [1] was 0.598 nM; in assay [2], 15.4 nM.
Take `Cc1nn(C)c(C)c1-c1cc(Nc2ncc(C(F)(F)F)cc2F)ccc1OCCO` [Compound I-022]: the Ki amounted to 0.428 nM in assay [1] (setting [3]) and 48.4 nM in assay [2].
As to `Cc1cnn(C)c1-c1cc(Nc2ncc(Cl)cc2F)ccc1OCCO` [Compound I-140], the Ki in assay [1] (setting [3]) amounted to 0.148 nM; in assay [2], 1.06 nM.
In the same order, the values of `Cc1ncnc(C)c1-c1cc(Nc2ccc(OC(F)(F)F)cn2)ccc1OCCO` [Compound I-124] are 0.259 nM and 2.32 nM.
In the same order, the values of `OCCOc1ccc(Nc2ncc(C(F)(F)F)cc2F)cc1-c1ccncc1Cl` [Compound I-011] are 0.133 nM and 4.55 nM.
Consider `Cn1ncc(C#N)c1-c1cc(Nc2ncc(C(F)(F)F)cc2F)cc(F)c1OCCO` [Compound I-110], for which the values for the Ki in assay [1] (setting [3]) and in assay [2] were 0.375 nM and 17.3 nM, respectively.
Taken in the same sequence, the figures for `Cn1ncc(Br)c1-c1cc(Nc2ncccc2F)ccc1OCCO` [Compound I-045] were 0.235 nM and 3.77 nM.
With `Cc1noc(C)c1-c1cc(Nc2ncc(C(F)(F)F)cc2F)ccc1OCCO` [Compound I-010], the values for the inhibitory constant (Ki) in assay [1] (setting [3]) and in assay [2] were 0.246 nM and 1.41 nM, respectively.
Taken in the same sequence, the figures for `Cc1cnn(C)c1-c1cc(Nc2ccc(C(F)(F)F)cn2)c(Oc2ccn(C)n2)cc1OCCO` [Compound I-126] were 0.654 nM and 4.42 nM.
In the same order, the values of `Cc1cnn(C2CC2)c1-c1cc(Nc2ncc(C(F)(F)F)cc2F)ccc1OCCO` [Compound I-074] are 0.236 nM and 0.843 nM.
Taken in the same sequence, the figures for `Cc1ncnc(C)c1-c1cc(Nc2ncc(C(F)(F)F)cc2F)cnc1OCCO` [Compound I-134] were 0.621 nM and 13.2 nM.
With `Cc1cnn(C)c1-c1cc(Nc2ncc(C(F)(F)F)cc2F)cnc1OCCO` [Compound I-083], the Ki in assay [1] (setting [3]) came out at 0.289 nM; in assay [2] it was 2.97 nM.
Taken in the same sequence, the figures for `Cn1ncc(Br)c1-c1cc(Nc2ccc(OC(F)F)cn2)ccc1OCCO` [Compound I-060] were 0.158 nM and 0.184 nM.
Taken in the same sequence, the figures for `Cc1cnn(C)c1-c1cc(Nc2ccc(C(F)(F)F)cn2)c(F)cc1OCCO` [Compound I-157] were 0.238 nM and 2.33 nM.
In the same order, the values of `Cc1nc(C)c(-c2cc(Nc3ncc(C(F)(F)F)cc3F)cnc2OCCO)c(C)n1` [Compound I-135] are 1.24 nM and 7.13 nM.
Turning to `CCc1cnn(C)c1-c1cc(Nc2ncc(C(F)(F)F)cc2F)ccc1OCCO` [Compound I-055], the Ki in assay [1] (setting [3]) is 0.396 nM; in assay [2], 0.745 nM.
For the molecule `Cn1ncc(Br)c1-c1cc(Nc2ncc(Cl)s2)cnc1OCCO` [Compound I-130], the Ki was found to be 0.256 nM in assay [1] (setting [3]) and 3.26 nM in assay [2].
Taken in the same sequence, the figures for `Cc1cccc(C)c1-c1cc(Nc2ncc(C(F)(F)F)cc2F)ccc1OCCO` [Compound I-034] were 0.77 nM and 3.57 nM.
As for `Cn1ncc(Br)c1-c1cc(Nc2ccc(OC(F)(F)F)cc2)ccc1OCCO` [Compound I-061], the Ki in assay [1] (setting [3]) turned out to be 0.254 nM; in assay [2], 1.31 nM.
Taken in the same sequence, the figures for `Cn1ncc(Br)c1-c1cc(Nc2ncc(F)cc2F)ncc1OCCO` [Compound I-089] were 0.412 nM and 3 nM.
For `Cn1ncc(Br)c1-c1cc(Nc2ncc(Cl)c3ccccc23)ccc1OCCO` [Compound I-113], the Ki in assay [1] (setting [3]) is 0.295 nM; in assay [2], 3.09 nM.
Taken in the same sequence, the figures for `Cn1ncc(C#N)c1-c1cc(Nc2ncc(Cl)cc2F)ccc1OCCO` [Compound I-051] were 0.318 nM and 2.6 nM.
Taken in the same sequence, the figures for `Cn1ncc(Br)c1-c1cc(Nc2nccc3cccnc23)ccc1OCCO` [Compound I-111] were 2.98 nM and 24.2 nM.
Taken in the same sequence, the figures for `Cc1cncc(C)c1-c1cc(Nc2ncc(C(F)(F)F)cc2F)ccc1OCCO` [Compound I-030] were 0.31 nM and 0.881 nM.
For `Cn1ncc(Br)c1-c1cc(Nc2ccc(C(F)(F)F)cn2)cnc1OCCO` [Compound I-081], the results for the Ki in assay [1] (setting [3]) and in assay [2] were 0.202 nM and 0.457 nM, respectively.
Consider `Cn1ncc(Br)c1-c1cc(Nc2nc3cc(F)ccc3[nH]2)ccc1OCCO` [Compound I-077], for which the inhibition constant Ki in assay [1] (setting [3]) is 0.23 nM; in assay [2], 3.25 nM.
`Cn1ncc(Br)c1-c1cc(Nc2ncc(C(F)(F)F)cn2)cnc1OCCO` [Compound I-131]: the figures for the inhibition constant Ki in assay [1] (setting [3]) and in assay [2] were 0.163 nM and 1.25 nM, respectively.
Taken in the same sequence, the figures for `Cn1ncc(Br)c1-c1cc(Nc2nc3ccc(F)cc3n2C)ccc1OCCO` [Compound I-092] were 0.274 nM and 2.76 nM.
As to `Cn1ncc(Br)c1-c1cc(Nc2nc(C3CC3)ns2)ccc1OCCO` [Compound I-104], the Ki was 0.39 nM in assay [1] (setting [3]) and 6.13 nM in assay [2].
Take `Cn1ncc(Cl)c1-c1cc(Nc2ncc(F)cc2F)ccc1OCCO` [Compound I-137]: the Ki in assay [1] (setting [3]) amounted to 0.205 nM; in assay [2] it was 0.772 nM.

By Ki is commonly meant a measure of affinity in units of concentration, obtained from inhibition or displacement.
